Here are results for 6 compounds from US20210254056A1, “IDENTIFICATION AND TARGETED MODULATION OF GENE SIGNALING NETWORKS” (CAMP4 THERAPEUTICS CORPORATION, priority 2017, published 2021).

This data set has as its system hepatocytes. Description: RNA-seq of hepatocytes treated with Phase III failure compounds. The following applies: for significant modulation of expression of any of the genes analyzed: p≤0.05; for significant changes in gene expression: RNA-seq of Table 36, FPKM≥0.5, log 2(fold-change)≥1, q-value≤0.05. On the procedure: RNA-seq was performed to determine the effects of the compounds on hepatocytes.
Significance was determined by the criteria of FPKM≥0.5, a log 2(fold-change)≥1, and a […].

Setting [1] is: RNA-seq, hepatocytes, gene named in the value.

Turning to `CCN(CC)CCN(Cc1ccc(-c2ccc(C(F)(F)F)cc2)cc1)C(=O)Cn1c(SCc2ccc(F)cc2)nc(=O)c2c1CCC2` [Darapladib], the “RNA-seq results, CYP2B6 expression” value is −0.12; the “RNA-seq results, CYP2C19 expression” value is given as −0.01; the “RNA-seq results, CYP2D6 expression” value is reported as −0.21; the “RNA-seq results, CYP3A4 expression” value is given as −0.47. Further, the “RNA-seq results, CYP7B1 expression” value is recorded as −0.03; the “RNA-seq results, CYP39A1 expression” value is reported as −0.23; the “RNA-seq results: CYP2B6 expression” value came to 0.25; the “RNA-seq results: CYP2C19 expression” value came to 0.54. Also, the “RNA-seq results: CYP2D6 expression” value is −0.06, the “RNA-seq results: CYP3A4 expression” value amounted to 0.07, the “RNA-seq results: CYP7B1 expression” value is −0.46 and the “RNA-seq results: CYP39A1 expression” value is −0.07. The “significant modulation of expression of disease genes” value (RNA-seq, q≤0.05, hepatocytes, genes in the value or listed in the block) is recorded as “significantly (q≤0.05) modulate expression”. Also, under setting [1], the “genes down-regulated by the compound” value is reported as “ANGPTL3 was observed to be down-regulated”; the “genes up-regulated by the compound” value is “up-regulated genes: LDLR, PCSK9, and HMGCR”. In addition, the “RNA-seq results: A1BG expression” value (gene A1BG, hepatocytes) came to 0.01. In addition, the “RNA-seq results: AGTR1 expression” value (gene AGTR1, hepatocytes) is −0.18. The “RNA-seq results: AGXT expression” value (gene AGXT, hepatocytes) is recorded as −0.38. The “RNA-seq results: AHI1 expression” value (gene AHI1, hepatocytes) worked out at 0.12. The “RNA-seq results: AMPD3 expression” value (gene AMPD3, hepatocytes) stood at 0.42. In addition, the “RNA-seq results: AMT expression” value (gene AMT, hepatocytes) is −0.35. Also, the “RNA-seq results: ANGPTL3 expression” value (gene ANGPTL3, hepatocytes) is on record as −1.20. Also, the “RNA-seq results: ANKS4B expression” value (gene ANKS4B, hepatocytes) is reported as −0.52. Also, the “RNA-seq results: ANKS6 expression” value (gene ANKS6, hepatocytes) was found to be 0.11. Moreover, the “RNA-seq results: ANPEP expression” value (gene ANPEP, hepatocytes) came out at 0.11. For the same compound, the “RNA-seq results: AOC2 expression” value (gene AOC2, hepatocytes) is on record as 0.28. Besides, where the note is “gene APOA2, hepatocytes”, the “RNA-seq results: APOA2 expression” value is on record as −0.33. Also, the “RNA-seq results: APOA5 expression” value (gene APOA5, hepatocytes) is listed as −0.19. The “RNA-seq results: APOB expression” value (gene APOB, hepatocytes) is on record as 0.54. For the same compound, the “RNA-seq results: COG5 expression” value (gene COG5, hepatocytes) came out at 0.11. Further, for the setting “gene COG6, hepatocytes”, the “RNA-seq results: COG6 expression” value is reported as −0.09. Further, the “RNA-seq results: COL1A1 expression” value (gene COL1A1, hepatocytes) was 0.18. For the same compound, under “gene COX6A1, hepatocytes”, the “RNA-seq results: COX6A1 expression” value is −0.08. Besides, the “RNA-seq results: CP expression” value (gene CP, hepatocytes) is listed as 0.77. Also, where the note is “gene CPS1, hepatocytes”, the “RNA-seq results: CPS1 expression” value is −0.89. Further, the “RNA-seq results: CPT1A expression” value (gene CPT1A, hepatocytes) was 0.11. For the same compound, the “RNA-seq results: CPT2 expression” value (gene CPT2, hepatocytes) was −0.16. Moreover, the “RNA-seq results: CROT expression” value (gene CROT, hepatocytes) is given as −0.49. For the same compound, the “RNA-seq results: CSPP1 expression” value (gene CSPP1, hepatocytes) came out at 0.24. Further, where the note is “gene CTC1, hepatocytes”, the “RNA-seq results: CTC1 expression” value is listed as −0.01. The “RNA-seq results: CTDSP2 expression” value (gene CTDSP2, hepatocytes) was found to be 0.52. The “RNA-seq results: CTH expression” value (gene CTH, hepatocytes) is reported as 1.17. Also, the “RNA-seq results: CTNS expression” value (gene CTNS, hepatocytes) is −0.11. For the same compound, under “gene CTSF, hepatocytes”, the “RNA-seq results: CTSF expression” value was 0.25. Besides, the “RNA-seq results: CTSK expression” value (gene CTSK, hepatocytes) is 0.31. Further, under “gene CYB5A, hepatocytes”, the “RNA-seq results: CYB5A expression” value is recorded as −0.12. Also, for the setting “gene CYB5R3, hepatocytes”, the “RNA-seq results: CYB5R3 expression” value was −0.21. The “RNA-seq results: CYP27A1 expression” value (gene CYP27A1, hepatocytes) is on record as −0.18. For the same compound, the “RNA-seq results: DAO expression” value (gene DAO, hepatocytes) is recorded as −1.06. The “RNA-seq results: DBT expression” value (gene DBT, hepatocytes) is −0.13. Besides, the “RNA-seq results: DCDC2 expression” value (gene DCDC2, hepatocytes) was −1.43. Moreover, the “RNA-seq results: DCXR expression” value (gene DCXR, hepatocytes) is on record as −0.74. The “RNA-seq results: FABP1 expression” value (gene FABP1, hepatocytes) is 0.07. Also, the “RNA-seq results: FADD expression” value (gene FADD, hepatocytes) is given as −0.45. For the same compound, the “RNA-seq results: FAM111A expression” value (gene FAM111A, hepatocytes) was found to be 0.1. Further, the “RNA-seq results: FAM111B expression” value (gene FAM111B, hepatocytes) was −2.15. For the same compound, under “gene FAN1, hepatocytes”, the “RNA-seq results: FAN1 expression” value was −0.03. Further, the “RNA-seq results: FARS2 expression” value (gene FARS2, hepatocytes) is −0.42. Besides, the “RNA-seq results: FASLG expression” value (gene FASLG, hepatocytes) is recorded as −1.32. Also, the “RNA-seq results: FGA expression” value (gene FGA, hepatocytes) is −0.32. Moreover, where the note is “gene FGD1, hepatocytes”, the “RNA-seq results: FGD1 expression” value was −0.46. The “RNA-seq results: FGFR2 expression” value (gene FGFR2, hepatocytes) was −0.13. In addition, the “RNA-seq results: FIG4 expression” value (gene FIG4, hepatocytes) was −0.07. For the same compound, for the setting “gene FIS1, hepatocytes”, the “RNA-seq results: FIS1 expression” value is given as −0.35. Under “gene FTCD, hepatocytes”, the “RNA-seq results: FTCD expression” value is reported as −0.56. For the same compound, the “RNA-seq results: FTH1 expression” value (gene FTH1, hepatocytes) is 0.44. The “RNA-seq results: FUCA1 expression” value (gene FUCA1, hepatocytes) is −0.13. The “RNA-seq results: FXN expression” value (gene FXN, hepatocytes) is −0.22. Moreover, where the note is “gene G6PC3, hepatocytes”, the “RNA-seq results: G6PC3 expression” value is reported as −0.52. Besides, the “RNA-seq results: G6PC expression” value (gene G6PC, hepatocytes) came to 0.6. For the setting “gene G6PD, hepatocytes”, the “RNA-seq results: G6PD expression” value is given as −0.41. Also, the “RNA-seq results: GALK1 expression” value (gene GALK1, hepatocytes) is on record as −0.61. Moreover, under “gene GALK2, hepatocytes”, the “RNA-seq results: GALK2 expression” value is given as −0.14. Besides, the “RNA-seq results: GALT expression” value (gene GALT, hepatocytes) is −0.58. For the same compound, the “RNA-seq results: GATA6 expression” value (gene GATA6, hepatocytes) came out at 0. Besides, the “RNA-seq results: GATM expression” value (gene GATM, hepatocytes) is reported as −0.52. For the same compound, the “RNA-seq results: GBA expression” value (gene GBA, hepatocytes) is −0.23. Further, the “RNA-seq results: GBE1 expression” value (gene GBE1, hepatocytes) is −0.11. For the same compound, the “RNA-seq results: GCH1 expression” value (gene GCH1, hepatocytes) is on record as −0.19. The “RNA-seq results: GCKR expression” value (gene GCKR, hepatocytes) is −0.06. The “RNA-seq results: GCLC expression” value (gene GCLC, hepatocytes) is reported as −0.02. The “RNA-seq results: GOSH expression” value (gene GOSH, hepatocytes) is −1.21. For the same compound, under “gene RRM2B, hepatocytes”, the “RNA-seq results: RRM2B” value is reported as −0.49. Moreover, the “RNA-seq results: RSAD1” value (gene RSAD1, hepatocytes) is −0.13. The “RNA-seq results: SAMHD1” value (gene SAMHD1, hepatocytes) was −0.48. Also, the “RNA-seq results: SC5D” value (gene SC5D, hepatocytes) is on record as 0.37. Besides, the “RNA-seq results: SCARB1” value (gene SCARB1, hepatocytes) is −0.07. In addition, the “RNA-seq results: SCN9A” value (gene SCN9A, hepatocytes) is on record as −0.42. In addition, where the note is “gene SDCCAG8, hepatocytes”, the “RNA-seq results: SDCCAG8” value was −0.06. In addition, the “RNA-seq results: SEPN1” value (gene SEPN1, hepatocytes) was −0.10. Under “gene SERAC1, hepatocytes”, the “RNA-seq results: SERAC1” value is reported as −0.02. In addition, the “RNA-seq results: SERPINA1” value (gene SERPINA1, hepatocytes) is −0.05. Besides, under “gene SERPING1, hepatocytes”, the “RNA-seq results: SERPING1” value is given as 0.21. Further, the “RNA-seq results: SERPINI1” value (gene SERPINI1, hepatocytes) is listed as −0.42. The “RNA-seq results: SETBP1” value (gene SETBP1, hepatocytes) was −0.10. For the setting “gene SFXN4, hepatocytes”, the “RNA-seq results: SFXN4” value was −0.38. Besides, the “RNA-seq results: SLC10A1” value (gene SLC10A1, hepatocytes) is recorded as −0.68. In addition, under “gene SLC10A3, hepatocytes”, the “RNA-seq results: SLC10A3” value amounted to 0.47. Moreover, the “RNA-seq results: SLC10A5” value (gene SLC10A5, hepatocytes) is given as −0.54. For the same compound, the “RNA-seq results: SLC10A7” value (gene SLC10A7, hepatocytes) is listed as −0.22. Moreover, the “RNA-seq results: SLC11A2” value (gene SLC11A2, hepatocytes) was determined as 0.39. For the same compound, the “RNA-seq results: SLC19A1” value (gene SLC19A1, hepatocytes) is listed as −0.26. Also, for the setting “gene SLC19A2, hepatocytes”, the “RNA-seq results: SLC19A2” value was 0.54. Also, the “RNA-seq results: SLC19A3” value (gene SLC19A3, hepatocytes) is reported as −0.22. Further, the “RNA-seq results: SLC22A1” value (gene SLC22A1, hepatocytes) is given as −0.28. Also, the “RNA-seq results: SLC22A5” value (gene SLC22A5, hepatocytes) is on record as −0.23. Under “gene SLC25A1, hepatocytes”, the “RNA-seq results: SLC25A1” value came out at 0.24. In addition, for the setting “gene SLC25A10, hepatocytes”, the “RNA-seq results: SLC25A10” value is given as −0.48. Further, for the setting “gene SLC25A12, hepatocytes”, the “RNA-seq results: SLC25A12” value was −0.22. Where the note is “gene SLC25A13, hepatocytes”, the “RNA-seq results: SLC25A13” value was 0.20. The “RNA-seq results: SLC25A15” value (gene SLC25A15, hepatocytes) is −0.28. For the setting “gene SLC25A19, hepatocytes”, the “RNA-seq results: SLC25A19” value came out at 0.03. Further, the “RNA-seq results: SLC25A20” value (gene SLC25A20, hepatocytes) is −0.62. In addition, the “RNA-seq results: SLC25A29” value (gene SLC25A29, hepatocytes) worked out at 0.92. The “RNA-seq results: SLC25A32” value (gene SLC25A32, hepatocytes) is given as −0.21.
With `COc1cc2ncnc(Nc3ccc(F)c(Cl)c3)c2cc1NC(=O)/C=C/CN1CCCCC1` [Dacomitinib (PF299804, PF299), Dacomitinib], the “significant modulation of expression of any of the genes analyzed” value (RNA-seq, hepatocytes) was “not observed to significantly modulate expression”.
For `Cc1cc(C)c2c(c1)[C@@H](N(Cc1cc(C(F)(F)F)cc(C(F)(F)F)c1)c1nnn(C)n1)CCCN2C[C@H]1CC[C@H](C(=O)O)CC1` [Evacetrapib], the “significant changes in gene expression” value is “not observed to cause any significant changes in gene expression”. For the same compound, the “significant modulation of expression of any of the genes analyzed” value (RNA-seq, hepatocytes) is given as “not observed to significantly modulate expression”.
The like results for `CC(C)(CO)c1cc2cc(NC(=O)C3(c4ccc5c(c4)OC(F)(F)O5)CC3)c(F)cc2n1C[C@@H](O)CO` [VX-661 (tezacaptor), tezacaptor] were, in that order, “not observed to cause any significant changes in gene expression” and “not observed to significantly modulate expression”.
On to `Fc1ccc(C(OCCN2CCN(CCCc3ccccc3)CC2)c2ccc(F)cc2)cc1` [Vanoxerine], for which, where the note is “RNA-seq, Phase III failure compounds, hepatocytes, significance: FPKM≥0.5, log 2(fold-change)≥1, q-value≥0.05 (so in the source)”, the “Number (#) of genes having significantly changed expression” value is listed as 17.
With `CC1(C)CC[C@]2(C(=O)O)CC[C@]3(C)[C@H](C(=O)C=C4[C@@]5(C)C=C(C#N)C(=O)C(C)(C)[C@@H]5CC[C@]43C)[C@@H]2C1` [Bardoxolone], the “significant modulation of expression of any of the genes analyzed” value (RNA-seq, hepatocytes) was “not observed to significantly modulate expression”.
